Reference: patent US8168651B2, “Protein kinase modulators” (Cylene Pharmaceuticals, Inc., priority 2008, dated 2012)

Assays:
Assay in all cases: Standardized radiometric kinase assays, percentage of activity at 0.5 μM;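 note: Read-out is ³³P-labelled substrate protein phosphorylated by each kinase, captured on filters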
[1] = molecular target: each individual kinase of the panel (Homo sapiens, UniProt O00418); details: eEF-2K(h)
[2] = molecular target: each individual kinase of the panel (Homo sapiens, UniProt Q14680); details: MELK(h)
[3] = molecular target: each individual kinase of the panel (Homo sapiens, UniProt P06493); details: CDK1/cyclinB(h)
[4] = molecular target: each individual kinase of the panel (Homo sapiens, UniProt P54756); details: EphA5(h)
[5] = molecular target: each individual kinase of the panel (Homo sapiens, UniProt P31749); details: PKBα(h)
[6] = molecular target: each individual kinase of the panel (Homo sapiens, UniProt P08069); details: IGF-1R(h)
[7] = molecular target: each individual kinase of the panel (Homo sapiens, UniProt P06239); details: Lck(h)
[8] = molecular target: each individual kinase of the panel (Homo sapiens, UniProt P16234, D842V); details: PDGFRα(D842V)(h)
[9] = molecular target: each individual kinase of the panel (Homo sapiens, UniProt Q9UEE5); details: DRAK1(h)
[10] = molecular target: each individual kinase of the panel (Homo sapiens, UniProt Q9NYY3); details: Snk(h)
[11] = molecular target: each individual kinase of the panel (Homo sapiens, UniProt P16234); details: PDGFRα(h)
[12] = molecular target: each individual kinase of the panel (Homo sapiens, UniProt P11362); details: FGFR1(h)
[13] = molecular target: each individual kinase of the panel (Homo sapiens, UniProt Q15375); details: EphA7(h)
[14] = molecular target: each individual kinase of the panel (Homo sapiens, UniProt P00533); details: EGFR(h)
[15] = molecular target: each individual kinase of the panel (Homo sapiens, UniProt O15111); details: IKKα(h)
[16] = molecular target: each individual kinase of the panel (Homo sapiens, UniProt Q04759); details: PKCθ(h)
[17] = molecular target: each individual kinase of the panel (Homo sapiens, UniProt Q13976); details: PKG1α(h)
[18] = molecular target: each individual kinase of the panel (Homo sapiens, UniProt P07947); details: Yes(h)
[19] = molecular target: each individual kinase of the panel (Homo sapiens, UniProt Q12866); details: Mer(h)
[20] = molecular target: each individual kinase of the panel (Homo sapiens, UniProt P42345); details: mTOR(h)
[21] = molecular target: each individual kinase of the panel (Homo sapiens, UniProt Q05397); details: FAK(h)
[22] = molecular target: each individual kinase of the panel (Homo sapiens, UniProt Q9H422); details: HIPK3(h)
[23] = molecular target: each individual kinase of the panel (Homo sapiens, UniProt P50750); details: CDK9/cyclin T1 (h)
[24] = molecular target: each individual kinase of the panel (Homo sapiens, UniProt Q04912); details: Ron(h)
[25] = molecular target: each individual kinase of the panel (Homo sapiens, UniProt Q8IW41); details: PRAK(h)
[26] = molecular target: each individual kinase of the panel (Homo sapiens, UniProt Q16832); details: DDR2(h)
[27] = molecular target: each individual kinase of the panel (Homo sapiens, UniProt P68400); details: CK2(h)
[28] = molecular target: each individual kinase of the panel (Homo sapiens, UniProt P21802); details: FGFR2(h)
[29] = molecular target: each individual kinase of the panel (Homo sapiens, UniProt P09619); details: PDGFRβ(h)

Chain of each individual kinase of the panel (Homo sapiens, UniProt Q05397) (Q05397 2-1052 limits assumed): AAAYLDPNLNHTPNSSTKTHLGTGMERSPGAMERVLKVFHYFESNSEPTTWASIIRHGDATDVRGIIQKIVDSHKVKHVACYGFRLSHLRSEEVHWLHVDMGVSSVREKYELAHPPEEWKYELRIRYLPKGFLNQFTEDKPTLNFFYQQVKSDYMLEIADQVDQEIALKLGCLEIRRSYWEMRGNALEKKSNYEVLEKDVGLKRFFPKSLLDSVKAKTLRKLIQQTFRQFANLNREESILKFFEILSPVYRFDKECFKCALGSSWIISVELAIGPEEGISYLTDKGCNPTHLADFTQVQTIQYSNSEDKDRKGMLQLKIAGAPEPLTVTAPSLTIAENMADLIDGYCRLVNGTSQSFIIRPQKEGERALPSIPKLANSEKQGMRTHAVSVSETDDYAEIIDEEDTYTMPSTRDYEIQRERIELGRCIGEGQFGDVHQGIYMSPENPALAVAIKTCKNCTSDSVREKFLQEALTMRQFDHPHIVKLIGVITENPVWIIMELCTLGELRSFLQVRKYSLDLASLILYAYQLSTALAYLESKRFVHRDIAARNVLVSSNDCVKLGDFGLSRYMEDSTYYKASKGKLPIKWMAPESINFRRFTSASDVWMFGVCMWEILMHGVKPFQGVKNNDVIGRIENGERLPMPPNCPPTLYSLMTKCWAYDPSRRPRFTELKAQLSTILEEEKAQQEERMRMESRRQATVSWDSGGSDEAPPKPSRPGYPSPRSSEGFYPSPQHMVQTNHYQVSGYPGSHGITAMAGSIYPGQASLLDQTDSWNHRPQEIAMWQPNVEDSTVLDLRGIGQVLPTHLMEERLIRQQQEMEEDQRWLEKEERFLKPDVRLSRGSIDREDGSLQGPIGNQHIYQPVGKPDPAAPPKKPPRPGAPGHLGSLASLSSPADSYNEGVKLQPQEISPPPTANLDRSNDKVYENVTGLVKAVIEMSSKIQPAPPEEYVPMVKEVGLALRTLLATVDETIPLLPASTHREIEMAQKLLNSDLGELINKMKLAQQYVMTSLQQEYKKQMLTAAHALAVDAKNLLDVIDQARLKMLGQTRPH
Chain of each individual kinase of the panel (Homo sapiens, UniProt P11362) (P11362 22-822 limits assumed): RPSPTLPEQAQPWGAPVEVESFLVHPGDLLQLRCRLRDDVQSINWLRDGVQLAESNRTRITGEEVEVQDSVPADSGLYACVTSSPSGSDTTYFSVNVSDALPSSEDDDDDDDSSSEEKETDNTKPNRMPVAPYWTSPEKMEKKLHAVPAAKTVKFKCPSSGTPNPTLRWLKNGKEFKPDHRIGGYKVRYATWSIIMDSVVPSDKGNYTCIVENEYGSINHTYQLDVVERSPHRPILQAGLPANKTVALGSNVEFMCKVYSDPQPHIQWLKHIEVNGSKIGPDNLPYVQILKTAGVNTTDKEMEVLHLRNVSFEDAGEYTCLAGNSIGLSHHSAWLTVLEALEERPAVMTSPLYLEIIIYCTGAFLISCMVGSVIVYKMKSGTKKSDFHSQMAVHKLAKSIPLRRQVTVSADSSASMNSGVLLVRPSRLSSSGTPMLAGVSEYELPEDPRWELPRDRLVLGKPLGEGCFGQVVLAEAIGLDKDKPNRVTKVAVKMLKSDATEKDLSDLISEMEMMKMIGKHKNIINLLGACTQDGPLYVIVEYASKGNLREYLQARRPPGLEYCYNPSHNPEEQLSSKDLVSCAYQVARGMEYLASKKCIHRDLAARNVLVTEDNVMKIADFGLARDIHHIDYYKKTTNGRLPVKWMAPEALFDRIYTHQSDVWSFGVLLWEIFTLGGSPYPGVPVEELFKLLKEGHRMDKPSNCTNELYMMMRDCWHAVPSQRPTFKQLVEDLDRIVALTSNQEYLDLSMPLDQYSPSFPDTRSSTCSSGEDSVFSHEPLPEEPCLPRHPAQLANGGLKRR
Chain of each individual kinase of the panel (Homo sapiens, UniProt P21802) (P21802 22-821 limits assumed): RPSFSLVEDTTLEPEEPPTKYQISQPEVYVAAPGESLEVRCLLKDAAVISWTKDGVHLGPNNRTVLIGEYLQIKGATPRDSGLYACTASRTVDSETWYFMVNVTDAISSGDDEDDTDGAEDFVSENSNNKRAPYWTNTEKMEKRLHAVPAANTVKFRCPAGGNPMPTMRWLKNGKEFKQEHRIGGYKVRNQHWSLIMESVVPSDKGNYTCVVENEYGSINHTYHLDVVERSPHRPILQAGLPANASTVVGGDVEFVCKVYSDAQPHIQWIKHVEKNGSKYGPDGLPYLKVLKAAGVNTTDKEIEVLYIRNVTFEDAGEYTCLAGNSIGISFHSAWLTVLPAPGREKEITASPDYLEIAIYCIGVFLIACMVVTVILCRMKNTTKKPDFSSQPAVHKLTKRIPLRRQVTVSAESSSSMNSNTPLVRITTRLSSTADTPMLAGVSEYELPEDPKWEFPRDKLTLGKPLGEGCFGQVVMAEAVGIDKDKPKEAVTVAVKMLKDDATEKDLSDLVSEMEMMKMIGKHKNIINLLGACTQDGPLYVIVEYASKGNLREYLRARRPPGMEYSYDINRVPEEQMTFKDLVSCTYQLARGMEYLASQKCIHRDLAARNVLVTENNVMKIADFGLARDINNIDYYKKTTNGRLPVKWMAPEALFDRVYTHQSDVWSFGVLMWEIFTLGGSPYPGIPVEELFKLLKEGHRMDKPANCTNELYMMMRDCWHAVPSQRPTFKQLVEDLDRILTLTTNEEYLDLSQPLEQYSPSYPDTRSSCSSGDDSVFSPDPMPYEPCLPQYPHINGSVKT
Chain of each individual kinase of the panel (Homo sapiens, UniProt Q13976) (Q13976 2-671 limits assumed): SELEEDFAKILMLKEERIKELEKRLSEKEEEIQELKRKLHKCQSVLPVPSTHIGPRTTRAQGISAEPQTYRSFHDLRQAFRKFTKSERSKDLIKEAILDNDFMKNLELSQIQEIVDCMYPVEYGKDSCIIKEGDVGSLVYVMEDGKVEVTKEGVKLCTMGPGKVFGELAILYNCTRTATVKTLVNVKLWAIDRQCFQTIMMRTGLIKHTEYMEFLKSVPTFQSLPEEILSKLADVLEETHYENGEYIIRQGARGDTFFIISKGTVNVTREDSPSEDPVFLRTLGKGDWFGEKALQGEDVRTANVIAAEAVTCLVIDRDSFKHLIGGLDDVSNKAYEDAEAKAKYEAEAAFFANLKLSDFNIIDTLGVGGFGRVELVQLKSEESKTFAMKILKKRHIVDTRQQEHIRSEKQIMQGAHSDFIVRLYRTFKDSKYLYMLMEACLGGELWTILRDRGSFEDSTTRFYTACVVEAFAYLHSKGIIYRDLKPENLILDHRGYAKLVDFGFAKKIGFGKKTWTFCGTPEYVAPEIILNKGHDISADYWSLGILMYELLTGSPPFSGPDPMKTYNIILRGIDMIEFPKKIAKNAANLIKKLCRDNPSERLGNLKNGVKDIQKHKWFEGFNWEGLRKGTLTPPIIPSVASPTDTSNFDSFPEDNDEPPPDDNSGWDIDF
Chain of each individual kinase of the panel (Homo sapiens, UniProt P54756) (P54756 25-1037 limits assumed): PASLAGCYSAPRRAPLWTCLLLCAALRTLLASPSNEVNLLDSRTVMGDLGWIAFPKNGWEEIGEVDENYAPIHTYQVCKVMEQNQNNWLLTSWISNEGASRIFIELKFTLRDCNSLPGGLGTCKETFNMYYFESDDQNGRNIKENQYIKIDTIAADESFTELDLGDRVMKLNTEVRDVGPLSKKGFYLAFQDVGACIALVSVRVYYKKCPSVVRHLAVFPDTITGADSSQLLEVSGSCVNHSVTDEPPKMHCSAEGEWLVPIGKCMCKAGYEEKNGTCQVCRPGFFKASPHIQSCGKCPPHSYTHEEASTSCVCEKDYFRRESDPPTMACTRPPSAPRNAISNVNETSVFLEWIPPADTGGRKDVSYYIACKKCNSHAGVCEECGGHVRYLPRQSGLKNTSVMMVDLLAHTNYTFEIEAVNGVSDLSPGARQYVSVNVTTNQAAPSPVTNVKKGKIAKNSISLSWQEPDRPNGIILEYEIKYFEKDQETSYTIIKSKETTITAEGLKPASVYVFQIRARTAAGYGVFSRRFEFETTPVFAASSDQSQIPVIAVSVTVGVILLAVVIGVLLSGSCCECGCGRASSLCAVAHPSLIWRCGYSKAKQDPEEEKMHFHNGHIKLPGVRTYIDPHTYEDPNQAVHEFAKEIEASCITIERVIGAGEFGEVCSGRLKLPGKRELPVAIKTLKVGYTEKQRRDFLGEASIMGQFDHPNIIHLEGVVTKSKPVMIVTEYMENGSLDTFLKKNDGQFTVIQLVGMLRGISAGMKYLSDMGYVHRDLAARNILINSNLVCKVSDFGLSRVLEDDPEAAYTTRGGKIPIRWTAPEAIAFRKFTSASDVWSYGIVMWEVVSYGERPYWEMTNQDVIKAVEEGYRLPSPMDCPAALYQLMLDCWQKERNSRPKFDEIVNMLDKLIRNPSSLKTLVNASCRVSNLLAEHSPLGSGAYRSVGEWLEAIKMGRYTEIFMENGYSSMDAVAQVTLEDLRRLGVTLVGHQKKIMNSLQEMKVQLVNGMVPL
Chain of each individual kinase of the panel (Homo sapiens, UniProt P07947) (P07947 2-543 limits assumed): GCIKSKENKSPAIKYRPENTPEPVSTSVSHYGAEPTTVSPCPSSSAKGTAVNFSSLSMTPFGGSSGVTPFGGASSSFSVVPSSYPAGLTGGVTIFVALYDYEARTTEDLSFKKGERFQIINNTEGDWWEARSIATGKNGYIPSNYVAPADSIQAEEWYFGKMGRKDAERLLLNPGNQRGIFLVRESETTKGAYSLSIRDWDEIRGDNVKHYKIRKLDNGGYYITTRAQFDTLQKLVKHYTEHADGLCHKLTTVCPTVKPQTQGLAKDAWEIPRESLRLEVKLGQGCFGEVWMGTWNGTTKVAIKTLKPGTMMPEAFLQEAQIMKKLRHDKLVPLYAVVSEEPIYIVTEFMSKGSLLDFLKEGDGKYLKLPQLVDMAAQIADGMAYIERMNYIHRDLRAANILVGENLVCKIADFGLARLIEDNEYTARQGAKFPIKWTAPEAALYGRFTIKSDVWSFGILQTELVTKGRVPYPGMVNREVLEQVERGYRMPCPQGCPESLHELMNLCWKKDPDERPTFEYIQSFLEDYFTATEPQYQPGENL

**Q.** Which results are given for Clc1ccccc1Nc1nc2c(-c3nnc[nH]3)cccc2c2cnccc12 [A]?
**A.** % Activity [1]: 111%; % Activity [2]: 13%; % Activity [3]: 37%; % Activity [4]: 95%; % Activity [5]: 98%; % Activity [6]: 101%; % Activity [7]: 21%; % Activity [8]: 17%; % Activity [9]: 75%; % Activity [10]: 79%; % Activity [11]: 97%; % Activity [12]: 100%; % Activity [13]: 96%; % Activity [14]: 111%; % Activity [15]: 108%; % Activity [16]: 39%; % Activity [17]: 40%; % Activity [18]: 26%; % Activity [19]: 38%; % Activity [20]: 99%; % Activity [21]: 30%; % Activity [22]: 2%; % Activity [23]: 37%; % Activity [24]: 99%; % Activity [25]: 97%; % Activity [26]: 90%; % Activity [27]: 58%; % Activity [28]: 93%; % Activity [29]: 94%
